Test [1] deals with [35S]-TBPS binding, rat brain cortical membranes. In words: Steroid inhibition of [35S]-TBPS binding. The conditions noted are these: 2 nM [35S]-TBPS, in the presence of 5 μM GABA. How it is done: Steroid Inhibition of TBPS Binding
TBPS binding assays using rat brain cortical membranes in the presence of 5 μM GABA has been described (Gee et al, J. Pharmacol. Exp. Ther. 1987, 241, 346-353; Hawkinson et al, Mol. Pharmacol. 1994, 46, 977-985).
Briefly, cortices are rapidly removed following decapitation of carbon dioxide-anesthetized Sprague-Dawley rats (200-250 g). The cortices are homogenized in 10 volumes of ice-cold 0.32 M sucrose using a glass/teflon homogenizer and centrifuged at 1500×g for 10 min at 4° C. The resultant supernatants are centrifuged at 10,000×g for 20 min at 4° C. to obtain the P2 pellets. The P2 pellets are resuspended in 200 mM NaCl/50 mM Na—K phosphate pH 7.4 buffer and centrifuged at 10,000×g for 10 min at 4° C. This ishing procedure is repeated twice and the pellets are resuspended in 10 volumes of buffer. Aliquots (100 μL) of the membrane suspensions are incubated with 2 nM [^35S]-TBPS and 5 μL aliquots of test drug dissolved in dimethyl sulfoxide (DMSO) (final 0.5%) in the presence of 5 μM GABA. The incubation is brought to a final volume of 1.0 mL with buffer. Nonspecific binding is determined in the presence of 2 μM unlabeled TBPS and ranged from 15 to 25%. Following a 90 min incubation at room temp, the assays are terminated by filtration through glass fiber filters (Schleicher and Schuell No. 32) using a cell harvester (Brandel) and rinsed three times with ice-cold buffer. Filter bound radioactivity is measured by liquid scintillation spectrometry. Non-linear curve fitting of the overall data for each drug averaged for each concentration is done using Prism (GraphPad). […] The concentration of test compound producing 50% inhibition (IC50) of specific binding and the maximal extent of inhibition (Imax) are determined for the individual experiments with the same model used for the overall data and then the means±SEM.s of the individual experiments are calculated.
Various compounds are or can be screened to determine their potential as modulators of [^35S]-TBPS binding in vitro. These assays are or can be performed in accordance with the above discussed procedures.

Test [2] concerns the target T1, Recombinant α1β2γ2 GABAA Receptors (Homo sapiens, UniProt P14867+P47870).
T1 construct: expressed in transfected cells; host or cells: Ltk cells
In words: Patch clamp electrophysiology of recombinant α1β2γ2 GABAA receptors, potentiation of GABA mediated currents. The format is cell-based. The conditions noted are these: Ltk cells, GABA EC10=0.5 μM, whole cell patch clamp; for % potentiation at 100 nM: test article 100 nM; for % potentiation at 1000 nM: test article 1000 nM; for % potentiation at 10000 nM: test article 10000 nM. How it is done: Patch Clamp Electrophysiology of Recombinant α1β2γ2 GABAA Receptors
Cellular electrophysiology is used to measure in vitro potency and efficacy of our GABAA receptor modulators in Ltk cells. Each compound is tested for its ability to affect GABA mediated currents at a submaximal agonist dose (GABA EC10=0.5 μM) in a whole cell patch clamp technique using a EPC-10, HEKA Electronics Amplifier and PatchMaster software. These experiments measure potency, efficacy (Emax), direct gating properties and acute desensitization. Test article is added at 0.1, 1.0 and 10 uM.
On the technique in general: The patch-clamp technique gives a direct electrical read-out from membranes.

The values that follow come from US10435431B2, “3,3 disubstituted 19-nor pregnane compounds, compositions, and uses thereof” (Sage Therapeutics, Inc., priority 2011, dated 2019).

By IC50 is commonly meant the concentration needed to halve the response being measured.

Where only a bound is given, the exact number is not on record here.

T1 sequence (P14867 28-456): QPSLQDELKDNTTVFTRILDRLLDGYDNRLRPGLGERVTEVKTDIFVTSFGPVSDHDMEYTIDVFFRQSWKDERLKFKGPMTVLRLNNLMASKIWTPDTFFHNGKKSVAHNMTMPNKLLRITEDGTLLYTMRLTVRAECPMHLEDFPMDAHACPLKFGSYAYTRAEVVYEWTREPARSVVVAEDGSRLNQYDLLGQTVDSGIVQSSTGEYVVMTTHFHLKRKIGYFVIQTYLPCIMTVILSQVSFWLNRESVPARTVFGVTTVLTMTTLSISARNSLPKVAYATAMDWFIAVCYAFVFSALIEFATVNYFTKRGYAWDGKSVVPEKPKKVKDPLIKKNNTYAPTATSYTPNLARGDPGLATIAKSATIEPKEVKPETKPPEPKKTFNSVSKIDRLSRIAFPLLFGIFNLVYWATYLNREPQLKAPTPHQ
T1 sequence (P47870 25-512 limits assumed): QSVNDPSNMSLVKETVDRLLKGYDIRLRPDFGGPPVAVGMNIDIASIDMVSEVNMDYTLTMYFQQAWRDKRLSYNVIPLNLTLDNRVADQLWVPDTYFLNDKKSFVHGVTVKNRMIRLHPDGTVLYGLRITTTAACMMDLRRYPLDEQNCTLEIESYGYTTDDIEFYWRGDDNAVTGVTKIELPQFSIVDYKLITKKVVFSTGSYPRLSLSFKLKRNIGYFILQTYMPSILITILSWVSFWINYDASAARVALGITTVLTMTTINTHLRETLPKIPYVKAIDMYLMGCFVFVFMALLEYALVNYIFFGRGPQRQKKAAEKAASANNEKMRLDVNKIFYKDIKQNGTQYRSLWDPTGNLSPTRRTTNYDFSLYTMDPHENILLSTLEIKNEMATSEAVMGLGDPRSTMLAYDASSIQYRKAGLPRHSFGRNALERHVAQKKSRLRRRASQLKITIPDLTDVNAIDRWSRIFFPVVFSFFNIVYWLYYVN
T1 sequence (P18507 40-475 partner): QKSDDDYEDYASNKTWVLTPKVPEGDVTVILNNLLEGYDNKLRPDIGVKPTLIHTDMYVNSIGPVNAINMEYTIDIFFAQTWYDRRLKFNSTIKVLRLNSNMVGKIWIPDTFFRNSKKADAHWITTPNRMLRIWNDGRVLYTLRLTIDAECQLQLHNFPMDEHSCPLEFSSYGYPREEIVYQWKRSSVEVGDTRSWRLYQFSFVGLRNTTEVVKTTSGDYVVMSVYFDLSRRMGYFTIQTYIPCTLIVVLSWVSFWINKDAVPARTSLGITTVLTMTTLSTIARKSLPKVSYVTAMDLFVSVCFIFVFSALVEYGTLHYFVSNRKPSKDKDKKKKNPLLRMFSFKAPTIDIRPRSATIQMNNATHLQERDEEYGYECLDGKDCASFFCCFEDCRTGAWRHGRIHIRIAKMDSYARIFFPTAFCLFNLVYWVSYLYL

Regarding `C[C@@]1(O)CC[C@H]2[C@H](CC[C@@H]3[C@@H]2CC[C@]2(C)[C@@H](C(=O)CO)CC[C@@H]32)C1`, in test [1], the IC50 turned out to be 86 nM. For the same compound, in test [2], the “% potentiation at 100 nM” value turned out to be 101% and the “% potentiation at 1000 nM” value is reported as 163%.
In the case of `CC(=O)[C@H]1CC[C@H]2[C@@H]3CC[C@@H]4C[C@@](O)(C(F)F)CC[C@@H]4[C@H]3CC[C@]12C`, in test [1], the IC50 was 33 nM.
Take `COC[C@@]1(O)CC[C@H]2[C@H](CC[C@@H]3[C@@H]2CC[C@]2(C)[C@@H](C(=O)CO)CC[C@@H]32)C1`: the IC50 in test [1] is 170 nM.
As for `COC[C@@]1(O)CC[C@H]2[C@H](CC[C@@H]3[C@@H]2CC[C@]2(C)[C@@H](C(C)=O)CC[C@@H]32)C1`, in test [1], the IC50 came to 41 nM.
Regarding `CC(=O)[C@H]1CC[C@H]2[C@@H]3CC[C@H]4C[C@](C)(O)CC[C@@H]4[C@H]3CC[C@]12C`, in test [1], the IC50 came to 93 nM. In test [2], the “% potentiation at 100 nM” value worked out at 80%, the “% potentiation at 1000 nM” value came out at 157% and the “% potentiation at 10000 nM” value is given as 270%.
Consider `C[C@@]1(O)CC[C@H]2[C@@H](CC[C@@H]3[C@@H]2CC[C@]2(C)[C@@H](C(=O)CO)CC[C@@H]32)C1`, for which the IC50 in test [1] was 220 nM. Besides, in test [2], the “% potentiation at 1000 nM” value was determined as 130% and the “% potentiation at 10000 nM” value came out at 227%.
For the compound `C[C@]12CC[C@H]3[C@@H](CC[C@H]4C[C@@](O)(C(F)F)CC[C@@H]43)[C@@H]1CC[C@@H]2C(=O)CO`, the IC50 in test [1] is above 10000 nM. In test [2], the “% potentiation at 1000 nM” value stood at 0% and the “% potentiation at 10000 nM” value is 100%.
`COC[C@@]1(O)CC[C@H]2[C@@H](CC[C@@H]3[C@@H]2CC[C@]2(C)[C@@H](C(=O)CO)CC[C@@H]32)C1`: in test [1], the IC50 came out at 94 nM.
Same read-out and setting: the result for `CC(=O)[C@H]1CC[C@H]2[C@@H]3CC[C@@H]4C[C@](O)(CF)CC[C@@H]4[C@H]3CC[C@]12C` reads 100 nM.
